According to patent US9994886B2, “Modified Epstein-Barr virus DNA polymerase and methods for isothermal DNA amplification” (priority 2013, dated 2018):

Columns and labels:
[1] = BALF5 combined with BMRF1; cited from earlier work
[2] = test system: singly-primed M13mp18 single-stranded DNA circle; details: cited from earlier work
oligo dG:poly dC = experiment: Activity on synthetic primer:template, GC preference; format: biochemical
Text: EBVpol and the modified EBVpol of this invention have strong amplification activity on GC-rich regions of DNA sequences; EBV DNA polymerase has 29-fold greater activity on synthetic oligo dG:poly dC (primer:template) compared to oligo dA:poly dT. GC-rich DNA sequences are the most difficult-to-amplify DNA sequences. […] Thus, the GC-preference of EBVpol and its variants makes EBVpol and its variants preferred reagents for whole genome amplification (“WGA”).

GST-BMRF1 fusion = target: T1, GST-BMRF1 fusion (Epstein-Barr virus, UniProt P03191); experiment: GST-BMRF1 fusion binding to BALF5 on glutathione agarose beads at varied salt
T1 construct: A GST fusion with BMRF1 residues 1-303 was constructed and expressed in E. coli BL21*DE3; made in house; host or cells: E. coli BL21*DE3
T1 sequence (P03191 1-303): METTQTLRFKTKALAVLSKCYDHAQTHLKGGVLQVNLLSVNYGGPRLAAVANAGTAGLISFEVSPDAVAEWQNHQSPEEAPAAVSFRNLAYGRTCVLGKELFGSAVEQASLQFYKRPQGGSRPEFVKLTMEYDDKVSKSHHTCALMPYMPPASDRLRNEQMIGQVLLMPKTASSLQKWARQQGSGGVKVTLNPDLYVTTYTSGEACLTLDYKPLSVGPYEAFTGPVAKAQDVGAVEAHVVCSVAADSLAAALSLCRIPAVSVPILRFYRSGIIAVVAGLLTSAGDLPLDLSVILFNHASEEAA
Procedure: A GST fusion with BMRF1 residues 1-303 was constructed and expressed in E. coli BL21*DE3 as a soluble 58 kDa protein which bound specifically to glutathione-agarose. Glutathione agarose beads were incubated in bacterial extract containing either 27 kDa wild-type GST or 58 kDa GST-BMRF1 and extensively washed in PBS, or 50 mM Tris-HCl, pH 8.0 containing 0, 50, 100, 150, or 200 mM ammonium sulfate. The beads were then incubated in the same wash buffers in the presence of [^35S]-methionine labeled in vitro translated BALF5, and then the beads were washed extensively at the same salt concentrations as the incubations. The washed beads were boiled in SDS sample buffer and the eluted proteins were analyzed by SDS-PAGE/fluorography. Measures taken to avoid the copurification of nucleic acids included washing the column at 600 mM NaCl and application of DNase to the column. And SDS-PAGE analysis was used to monitor GST-BMRF1 (1-303). […] Non-specific binding of BALF5 to the 27 kDa GST was very weak and independent of salt concentration.

GST = target: T2, GST (Schistosoma japonicum, UniProt P08515); experiment: Non-specific binding of in vitro translated BALF5 to GST
T2 construct: made in house; host or cells: E. coli (bacterial extract)
Procedure: (§1) To determine if the extreme carboxyl terminus of the EBV BALF5 subunit is necessary for functional interaction with BMRF1, a series of deletions of the BALF5 open reading frame was constructed in the pYES-X2 vector and [^35S]-methionine labeled polypeptides were expressed by in vitro transcription-translation as described (Kiehl, A. and D. I. Dorsky, J Virol, 1995, 69(3): p. 1669-77). These radiolabeled BALF5-deletion polypeptides were then assayed for binding to GST-BMRF1(1-303) in 100 mM ammonium sulfate. In vitro translated BALF5 bound to GST-BMRF1(1-303) but not to GST alone.
A GST fusion with BMRF1 residues 1-303 was constructed and expressed in E. coli BL21*DE3 as a soluble 58 kDa protein which bound specifically to glutathione-agarose. Glutathione agarose beads were incubated in bacterial extract containing either 27 kDa wild-type GST or 58 kDa GST-BMRF1 and extensively washed in PBS, or 50 mM Tris-HCl, pH 8.0 containing 0, 50, 100, 150, or 200 mM ammonium sulfate. The beads were then incubated in the same wash buffers in the presence of [^35S]-methionine labeled in vitro translated BALF5, and then the beads were washed extensively at the same salt concentrations as the incubations. The washed beads were boiled in SDS sample buffer and the eluted proteins were analyzed by SDS-PAGE/fluorography. […]

[3] = test system: activated calf thymus (CT) DNA; experiment: DNA polymerase elongation activity of purified BALF5 on activated calf thymus DNA; format: biochemical
Procedure: (§2) When assayed in the presence of BMRF1, its activity on CT DNA at 100 mM ammonium sulfate was greater than 100-fold increased over its activity alone, in the absence of salt.

GST-BMRF1(1-303) = target: T3, GST-BMRF1(1-303) (Epstein-Barr virus, UniProt P03191); experiment: Binding of radiolabeled BALF5-deletion polypeptides to GST-BMRF1(1-303); details: 100 mM ammonium sulfate; [35S]-methionine labeled in vitro translated polypeptides
T3 construct: A GST fusion with BMRF1 residues 1-303 was constructed and expressed in E. coli BL21*DE3; made in house; host or cells: E. coli BL21*DE3
T3 sequence (P03191 1-303): T1 sequence (P03191 1-303)
Procedure: as §1

[4] = test system: activated calf thymus DNA; experiment: DNA polymerase assay, incorporation of [32P]-dCMP into trichloroacetic acid-precipitable material; format: biochemical; details: 100 mM ammonium sulfate; polypeptides in equimolar ratios
Procedure: The activity of the bacterially-expressed purified BMRF1(1-303)(“ΔC303”) polypeptide was examined in a DNA polymerase assay which measured incorporation of [^32P]-α-dCMP into trichloroacetic acid-precipitable material using activated calf thymus DNA and [^32P]-α-dCTP as the substrates in the presence of 100 mM ammonium sulfate (Tsurumi, T., T. Daikoku, and Y. Nishiyama, J Virol, 1994, 68(5): p. 3354-63). The BALF5 catalytic DNA polymerase subunit was obtained by expression in insect cells from the Ac-BALF5 baculovirus and purified by phosphocellulose and heparin affinity chromatography. The polypeptides were assayed in equimolar ratios and the specific activity (micromoles of dCMP incorporation per milligram of protein per hour) is shown in Table 3.
The GST-BMRF1 (1-303) polypeptide was bound to glutathione-agarose as described previously and cleaved overnight with 1/50 (w/w) factor Xa (NEBioLabs, Ipswich, Mass.) in 1 mM CaCl2. The cleaved BMRF1 (1-303) was then purified on DNA-cellulose, eluting at 300-500 mM NaCl. SDS-PAGE analysis confirmed the size of the uncleaved GST-BMRF1 (1-303) and the purified cleaved BMRF1 (1-303). The purified BMRF1 (1-303) was then shown to stimulate purified baculovirus-expressed BALF5 in 100 mM ammonium sulfate (see Table 3).

EBVpol = target: T4, EBVpol (Epstein-Barr virus, UniProt P03198); experiment: Inhibition of EBVpol activity at high salt; format: biochemical; details: 20 mM PAA
T4 construct: Ac-BALF5 baculovirus vector, an expression plasmid vector bearing the full-length BALF5 gene; made in house; host or cells: Sf9 insect cells, recombinant baculoviruses pAc-BALF5 and pAc-BMRF1
Procedure: as §2

T2 sequence (P08515 whole entry): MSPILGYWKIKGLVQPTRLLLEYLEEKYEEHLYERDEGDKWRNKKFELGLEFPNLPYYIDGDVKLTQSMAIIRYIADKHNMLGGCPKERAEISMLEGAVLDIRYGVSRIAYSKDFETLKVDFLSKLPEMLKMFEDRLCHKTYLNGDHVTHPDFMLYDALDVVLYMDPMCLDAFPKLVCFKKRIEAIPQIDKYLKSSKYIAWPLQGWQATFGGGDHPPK
T4 sequence (P03191 whole entry): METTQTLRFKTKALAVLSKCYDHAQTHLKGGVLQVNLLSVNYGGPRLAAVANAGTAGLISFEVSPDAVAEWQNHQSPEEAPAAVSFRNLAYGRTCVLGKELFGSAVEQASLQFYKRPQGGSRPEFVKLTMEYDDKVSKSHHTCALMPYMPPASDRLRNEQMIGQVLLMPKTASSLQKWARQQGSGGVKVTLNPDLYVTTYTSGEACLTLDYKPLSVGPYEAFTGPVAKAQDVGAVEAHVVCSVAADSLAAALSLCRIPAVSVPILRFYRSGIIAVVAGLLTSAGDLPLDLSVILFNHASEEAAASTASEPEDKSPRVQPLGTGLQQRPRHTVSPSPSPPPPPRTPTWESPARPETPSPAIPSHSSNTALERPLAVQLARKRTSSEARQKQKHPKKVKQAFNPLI
T4 sequence (P03198 whole entry, added parts left off): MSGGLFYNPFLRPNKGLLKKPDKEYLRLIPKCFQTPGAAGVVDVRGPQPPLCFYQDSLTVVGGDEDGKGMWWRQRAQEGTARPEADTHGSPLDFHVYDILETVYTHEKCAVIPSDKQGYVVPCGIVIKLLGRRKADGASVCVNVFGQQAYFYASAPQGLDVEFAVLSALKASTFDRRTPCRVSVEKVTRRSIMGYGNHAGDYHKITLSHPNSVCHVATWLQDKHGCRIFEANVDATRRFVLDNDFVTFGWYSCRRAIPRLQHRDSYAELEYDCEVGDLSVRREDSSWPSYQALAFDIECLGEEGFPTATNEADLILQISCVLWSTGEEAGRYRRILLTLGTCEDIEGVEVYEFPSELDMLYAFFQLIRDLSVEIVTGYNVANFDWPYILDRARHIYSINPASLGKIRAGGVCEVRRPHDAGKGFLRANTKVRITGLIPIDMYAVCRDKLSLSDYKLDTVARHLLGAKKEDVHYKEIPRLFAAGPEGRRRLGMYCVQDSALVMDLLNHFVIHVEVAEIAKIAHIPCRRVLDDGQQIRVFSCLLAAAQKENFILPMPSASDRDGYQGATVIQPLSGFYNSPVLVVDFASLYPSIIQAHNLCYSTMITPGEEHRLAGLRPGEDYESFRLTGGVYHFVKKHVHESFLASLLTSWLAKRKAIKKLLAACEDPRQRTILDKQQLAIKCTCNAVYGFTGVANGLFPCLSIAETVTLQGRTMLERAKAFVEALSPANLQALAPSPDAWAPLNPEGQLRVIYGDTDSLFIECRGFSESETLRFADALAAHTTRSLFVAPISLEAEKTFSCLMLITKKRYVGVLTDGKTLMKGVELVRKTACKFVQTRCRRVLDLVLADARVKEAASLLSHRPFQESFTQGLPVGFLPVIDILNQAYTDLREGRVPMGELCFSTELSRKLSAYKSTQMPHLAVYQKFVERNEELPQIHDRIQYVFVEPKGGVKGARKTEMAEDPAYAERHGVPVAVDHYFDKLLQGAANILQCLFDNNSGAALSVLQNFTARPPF

EBV DNA polymerase holoenzyme: 1:1 complex of BALF5 catalytic subunit and BMRF1 processivity factor
ionic strength optimum of processive primer-dependent DNA synthesis [1]: 150 mM ammonium sulfate
strand-displacement activity (SDA) [2]: possesses signification SDA
rate of incorporation ([2]; singly-primed M13mp18 single-stranded DNA circle): approximately 7200 nucleotides in 10 minutes
activity on oligo dG:poly dC compared to oligo dA:poly dT (oligo dG:poly dC): 29 fold

BALF5: 116-kDa catalytic subunit of EBV DNA polymerase with intrinsic 3′-5′ exonuclease activity, SEQ ID NO. 8
binding to the GST-BMRF1 fusion (GST-BMRF1 fusion; 0 and 200 mM ammonium sulfate): bind poorly
binding to the GST-BMRF1 fusion (GST-BMRF1 fusion; PBS and 50-150 mM ammonium sulfate): bound efficiently
binding to GST alone (GST): very weak
DNA polymerase elongation activity on activated CT DNA ([3]; 100 mM ammonium sulfate, BALF5 alone): completely inactive
increase of activity on CT DNA over its activity alone in the absence of salt ([3]; in the presence of BMRF1, 100 mM ammonium sulfate): greater than 100 fold
DNA polymerase elongation activity on activated CT DNA ([3]; low ionic strength): significant DNA polymerase elongation activity
binding to GST-BMRF1(1-303) (GST-BMRF1(1-303)): bound
Specific Activity [4]: 1.7 micromoles of dCMP incorporation per milligram of protein per hour

O=C(O)CP(=O)(O)O [PAA, phosphonoacetic acid]
inhibition at 20000 µM (EBVpol): 60%

B1: ΔC303: BMRF1 with deletion of the C-terminal 101 amino acids (residues 1-303) (protein)
chain: T1 sequence (P03191 1-303)
Specific Activity [4]: 0.2 micromoles of dCMP incorporation per milligram of protein per hour
